# Patent US11780845B2 (Relay Therapeutics, Inc., priority 2019, dated 2023)
# Experiments:
# FGFR2 = FGFR2 (Homo sapiens (Human), UniProt P21802); test: FGFR2 Biochemical Caliper Assay
# Protocol: Compounds of the present invention were also tested in a FGFR2 Biochemical Caliper Assay. Compounds were prepared in 10 mM DMSO solution and serially diluted into 11 concentrations by 3-fold dilution. […] 5 uL of ATP solution (100 uM) was added to start the reaction and the plate was incubated for 90 minutes, then 70 uL of stopping buffer (0.5M EDTA) was added to terminate the reaction. Each well was analyzed using EZ reader.
# SNU16 cells = test: SNU16 Cancer Cell Line Proliferation Assay; type: cell-based; conditions: Homo sapiens; SNU-16 cells
# Protocol: Compounds of the present invention were also tested in a SNU16 Cancer Cell Line Proliferation Assay, Test compounds were prepared in a 10 mM DMSO stock solution. 45 uL of stock solution was transferred to a 384 well plate, and a 3-fold 11-point dolution was performed. SNU16 cells in a 384 well cell culture plate were seeded and incubated at 37 degrees for 24 hours. 40 nL of each concentration of compound was transferred from the compound plate to a corresponding well in the cell culture plate by Echo550 liquid handler. The plates were incubated for 96 hours, then equilibrated to room temperature for 15 minutes. 20 uL of CellTiter Glo reagent is added into each well, then the plate was shaken gently for 30 minutes at room temperature. Chemiluminescence was then read on an EnVision reader.
# FGFR2, sequence (P21802 22-821): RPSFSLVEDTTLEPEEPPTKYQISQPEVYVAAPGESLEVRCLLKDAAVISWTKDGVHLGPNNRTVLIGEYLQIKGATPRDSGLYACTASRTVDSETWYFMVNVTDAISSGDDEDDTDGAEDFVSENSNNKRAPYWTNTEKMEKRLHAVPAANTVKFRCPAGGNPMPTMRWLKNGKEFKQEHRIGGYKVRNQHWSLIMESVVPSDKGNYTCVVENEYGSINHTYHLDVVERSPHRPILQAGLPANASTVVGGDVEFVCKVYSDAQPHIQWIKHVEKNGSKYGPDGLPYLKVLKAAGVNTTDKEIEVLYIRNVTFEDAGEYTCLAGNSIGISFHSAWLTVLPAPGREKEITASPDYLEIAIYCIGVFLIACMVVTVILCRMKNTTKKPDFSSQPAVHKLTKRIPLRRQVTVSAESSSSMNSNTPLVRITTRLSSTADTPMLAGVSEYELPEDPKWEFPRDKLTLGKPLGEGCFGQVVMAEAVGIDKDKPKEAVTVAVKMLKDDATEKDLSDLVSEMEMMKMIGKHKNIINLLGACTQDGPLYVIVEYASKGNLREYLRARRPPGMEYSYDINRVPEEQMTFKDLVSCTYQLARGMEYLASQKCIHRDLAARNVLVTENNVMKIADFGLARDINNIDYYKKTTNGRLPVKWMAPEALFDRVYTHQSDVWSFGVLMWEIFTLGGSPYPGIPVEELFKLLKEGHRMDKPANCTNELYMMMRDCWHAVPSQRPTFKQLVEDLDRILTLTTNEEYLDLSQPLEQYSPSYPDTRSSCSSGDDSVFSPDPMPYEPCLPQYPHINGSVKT
Compound,IC50 (FGFR2),IC50 (SNU16 cells)
"C=C(C)C(=O)Nc1ccc(-c2c(-c3ccc(Oc4nccc(C)n4)c(F)c3)c3c(N)ncnc3n2[C@H]2CCOC2)cc1 (single isomer, unassigned) [Example 538]",< 100 nM,≤ 100 nM
"C=C(C)C(=O)Nc1ccc(-c2c(-c3ccc(Oc4nccc(C)n4)c(F)c3)c3c(N)ncnc3n2[C@@H]2CCOC2)cc1 (single isomer, unassigned) [Example 539]",< 100 nM,≤ 100 nM
"C=C(C)C(=O)Nc1ccc(-c2c(C3=CC[C@H](Oc4ccn(C)n4)CC3)c3c(N)ncnc3n2C)cc1 (single isomer, unassigned) [Example 550]",100 to 250 nM,≤ 100 nM
"C[C@@H](Cl)C(=O)Nc1ccc(-c2c(-c3ccc(C(=O)N4CCCC4)cc3)c3c(N)ncnc3n2C)cc1 (single isomer, unassigned) [Example 559]",250 to 1000 nM,250 to 1000 nM
"C[C@H](Cl)C(=O)Nc1ccc(-c2c(-c3ccc(C(=O)N4CCCC4)cc3)c3c(N)ncnc3n2C)cc1 (single isomer, unassigned) [Example 560]",100 to 250 nM,100 to 250 nM
C=CC(=O)Nc1ccc(-c2c(-c3ccc(Oc4cccc(C)n4)c(OC)c3)c3c(N)ncnc3n2C)cc1 [Example 1],< 100 nM,≤ 100 nM
C=C(C)C(=O)Nc1ccc(-c2c(-c3ccc(Oc4cccc(C)n4)c(OC)c3)c3c(N)ncnc3n2C)cc1 [Example 4],< 100 nM,≤ 100 nM
C=CC(=O)Nc1ccc(-c2c(-c3ccc(Oc4ccccn4)c(OC)c3)c3c(N)ncnc3n2C)cc1 [Example 5],< 100 nM,≤ 100 nM
C=CC(=O)Nc1ccc(-c2c(-c3ccc(Oc4cccc(C)n4)cc3)c3c(N)ncnc3n2C)cc1F [Example 11],< 100 nM,≤ 100 nM
C=CC(=O)Nc1ccc(-c2c(-c3ccc(Oc4cccc(C)n4)cc3)c3c(N)ncnc3n2C)cc1OC [Example 14],< 100 nM,≤ 100 nM
C=CC(=O)Nc1ccc(-c2c(-c3ccc(Oc4ncccn4)c(OC)c3)c3c(N)ncnc3n2C)cc1 [Example 15],< 100 nM,≤ 100 nM
C/C=C/C(=O)Nc1ccc(-c2c(-c3ccc(Oc4cccc(C)n4)c(OC)c3)c3c(N)ncnc3n2C)cc1 [Example 31],< 100 nM,≤ 100 nM
C=CC(=O)Nc1ccc(-c2c(-c3ccc(Oc4ncc(C)cn4)c(OC)c3)c3c(N)ncnc3n2C)cc1 [Example 32],< 100 nM,≤ 100 nM
C=CC(=O)Nc1ccc(-c2c(-c3ccc(Oc4cccc(Cl)n4)c(OC)c3)c3c(N)ncnc3n2C)cc1 [Example 35],< 100 nM,≤ 100 nM
C=C(C)C(=O)Nc1ccc(-c2c(-c3ccc(Oc4ncccn4)c(OC)c3)c3c(N)ncnc3n2C)cc1 [Example 36],250 to 1000 nM,100 to 250 nM
C=CC(=O)Nc1ccc(-c2c(-c3ccc(Oc4nccc(C)n4)c(OC)c3)c3c(N)ncnc3n2C)cc1 [Example 38],< 100 nM,≤ 100 nM
C=CC(=O)Nc1ccc(-c2c(-c3ccc(Oc4ccc(C)c(C)n4)c(OC)c3)c3c(N)ncnc3n2C)cc1 [Example 45],< 100 nM,≤ 100 nM
C=CC(=O)Nc1ccc(-c2c(-c3ccc(Oc4ncccn4)c(C(F)(F)F)c3)c3c(N)ncnc3n2C)cc1 [Example 47],< 100 nM,≤ 100 nM
C=CC(=O)Nc1ccc(-c2c(-c3ccc(Oc4ncccn4)c(CC)c3)c3c(N)ncnc3n2C)cc1 [Example 48],< 100 nM,≤ 100 nM
C=CC(=O)Nc1ccc(-c2c(-c3ccc(Oc4ncccn4)c(N(C)C)c3)c3c(N)ncnc3n2C)cc1 [Example 49],< 100 nM,≤ 100 nM
C=CC(=O)Nc1ccc(-c2c(-c3ccc(Oc4cccc(CC)n4)c(OC)c3)c3c(N)ncnc3n2C)cc1 [Example 50],< 100 nM,≤ 100 nM
C=CC(=O)Nc1ccc(-c2c(-c3ccc(Oc4ncccn4)c(OCC)c3)c3c(N)ncnc3n2C)cc1 [Example 51],< 100 nM,≤ 100 nM
C=CC(=O)Nc1ccc(-c2c(-c3ccc(Oc4ncccn4)c(OC(F)(F)F)c3)c3c(N)ncnc3n2C)cc1 [Example 53],< 100 nM,≤ 100 nM
C=CC(=O)Nc1ccc(-c2c(-c3ccc(Oc4ncccn4)cc3)c3c(N)ncnc3n2C)cc1 [Example 54],< 100 nM,≤ 100 nM
C=CC(=O)Nc1ccc(-c2c(-c3ccc(Oc4ncc(CO)cn4)c(OC)c3)c3c(N)ncnc3n2C)cc1 [Example 60],< 100 nM,250 to 1000 nM
C=C(C)C(=O)Nc1ccc(-c2c(-c3ccc(Sc4ncccn4)cc3)c3c(N)ncnc3n2C)cc1 [Example 69],250 to 1000 nM,250 to 1000 nM
Cc1cccc(Oc2ccc(-c3c(-c4ccc(NC(=O)C(C)C)cc4)n(C)c4ncnc(N)c34)cc2)n1 [Example 70],250 to 1000 nM,250 to 1000 nM

# Continued, values first:
IC50 (FGFR2),IC50 (SNU16 cells),Compound
< 100 nM,≤ 100 nM,"Cn1c(-c2ccc(NC(=O)C3=CCC3)cc2)c(C2=CC[C@@H](C(=O)N3CCCC3)CC2)c2c(N)ncnc21 (single isomer, unassigned) [Example 565]"
< 100 nM,≤ 100 nM,"C=C(C)C(=O)Nc1ccc(-c2c(C3=CC[C@@H](C(=O)N4CCC[C@H]4C#N)CC3)c3c(N)ncnc3n2C)cc1 (single isomer, unassigned) [Example 582]"
100 to 250 nM,250 to 1000 nM,"Cn1c(-c2ccc(NC(=O)[C@@H]3CO3)cc2)c(-c2ccc(C(=O)N3CCCC3)cc2)c2c(N)ncnc21 (single isomer, unassigned) [Example 584]"
< 100 nM,≤ 100 nM,"C=C(C)C(=O)Nc1ccc(-c2c(C3=CC[C@@H](C(=O)N4CC5CC5C4)CC3)c3c(N)ncnc3n2C)cc1 (single isomer, unassigned) [Example 592]"
< 100 nM,≤ 100 nM,"C=CC(=O)N1CC[C@@H](c2c(-c3ccc(Oc4ncccn4)cc3)c3c(N)ncnc3n2C)C1 (single isomer, unassigned) [Example 697]"
250 to 1000 nM,100 to 250 nM,"C=CC(=O)N1CC[C@H](c2c(-c3ccc(Oc4ncccn4)cc3)c3c(N)ncnc3n2C)C1 (single isomer, unassigned) [Example 698]"
< 100 nM,≤ 100 nM,"C=CC(=O)N1CC[C@@H](c2c(-c3ccc(Oc4ncccn4)cc3)c3c(N)ncnc3n2CC)C1 (single isomer, unassigned) [Example 708]"
250 to 1000 nM,100 to 250 nM,"C=CC(=O)N1CC[C@H](c2c(-c3ccc(Oc4ncccn4)cc3)c3c(N)ncnc3n2CC)C1 (single isomer, unassigned) [Example 710]"
< 100 nM,≤ 100 nM,"C=CC(=O)N1CC[C@@H](c2c(-c3ccc(Oc4cccc(C)n4)cc3)c3c(N)ncnc3n2C)C1 (single isomer, unassigned) [Example 711]"
< 100 nM,≤ 100 nM,"C=CC(=O)N1CC[C@H](c2c(-c3ccc(Oc4cccc(C)n4)cc3)c3c(N)ncnc3n2C)C1 (single isomer, unassigned) [Example 712]"
< 100 nM,≤ 100 nM,"C=CC(=O)N1CC[C@@H](c2[nH]c3ncnc(N)c3c2-c2ccc(Oc3cccc(C)n3)cc2)C1 (single isomer, unassigned) [Example 752]"
250 to 1000 nM,100 to 250 nM,"C=CC(=O)N1CC[C@H](c2[nH]c3ncnc(N)c3c2-c2ccc(Oc3cccc(C)n3)cc2)C1 (single isomer, unassigned) [Example 754]"
